Columns and labels:
A549 cell line = assay: MTT cytotoxicity assay, A549; format: cell-based, human; settings: Homo sapiens; A549, 100 μΜ, 24 h; read-out: % Cell Toxicity 100 μΜ
Protocol: The compounds of this study were also tested for their cytotoxic effects against the adenocarcinomic human alveolar basal epithelial cell line (A549) at different concentrations (100 μM, 75 μΜ, 50 μM and 10 μM).
(§1) Τhe MTT assay was used to evaluate cell viability or cell toxicity, depending on the cell line being tested. The experimental procedure was performed in a 96-well plate, where the cells were seeded and incubated (37 °C, 5% CO2) for 24 h to grow and cover the surface of the wells. Τhe seeding concentrations for the HaCaT and A549 cells were 30 × 10^4 cells/mL and 20 × 10^4 cells/mL, respectively. After the first incubation, the solutions of the compounds (with different concentrations) were added to the adherent cells and incubated for another 24 h. The compounds were tested in triplicate against the control (only cells in medium), the blank (only medium) and the positive/negative control (cells in 100 μM silibinin solution) triplicates. Silibinin, a flavonoid with known anticancer activities, was used as a negative control for the cell viability assay and as positive control for the cytotoxicity testing assay. The light-sensitive MTT-standard solution was prepared by dissolving 1 mg/mL MTT in PBS and then filtrated (in a […] filter (Millipore, Carrigtwohill, Ireland)). On the third day, an appropriate amount of ΜΤΤ solution was added to each well and the plate was incubated for 4 h. During the incubation time, the formazan crystals were formed, which were then dissolved with 100 μL DMSO per well. Finally, the plate was stirred for 30 min, and the optical density (OD) was measured in a plate reader spectrophotometer at 450 nm.

[1] = MTT cell viability assay, HaCaT; format: cell-based, human; settings: human, HaCaT cells (epidermal keratinocyte cell line), 100 μΜ
Protocol: The MTT (3-(4,5-dimethylthiazol-2-yl)-2,5-diphenyltetrazolium bromide) assay is a colorimetric method that is used for the evaluation of cell viability. MTT is converted into colored formazan crystals, indicating the activity of mitochondria and therefore the viability of the cells. Unlike dead cells, the metabolic processes of living cells are functional, meaning that the dehydrogenase enzymes are able to reduce the yellow MTT salt solution to purple crystals, at 37 °C. The intensity of the sample’s color, due to the amount of formazan crystals, is proportional to the number of the living cells in it. Additionally, the colored product is dissolved in various solubilizing agents, such as dimethyl sulfoxide (DMSO). The colored products can be quantitatively measured at 450 nm with a plate reader spectrophotometer. In this study, the human epidermal keratinocyte cell line (HaCaT) was treated with different concentrations (100 μM, 50 μM, 10 μM and 1 μM) of the tested compounds and then the viability rates at each effect were calculated.
as §1

[2] = Experimental determination of lipophilicity as RM values (RP-TLC); format: physicochemical; settings: methanol/water 70/30 v/v, 24 °C, SD < 10%
Source text: Lipophilicity is an important physicochemical parameter of a drug candidate, linking solubility and membrane permeability with the ADMET (absorption, distribution, metabolism, elimination and toxicity) properties and the overall suitability of a molecule. Reversed-phase thin-layer chromatography was the method used to experimentally determine the lipophilic character of the synthesized compounds as RM values (Table 2). Lipophilicity was also theoretically calculated as clog P values using the Bio-Loom program of BioByte Corp (http://www.biobyte.com/, (accessed on 1 March 2023)). An attempt was made to correlate the experimental RM values with the theoretically calculated clog P values (Table 2). […] This disagreement could be attributed to several factors, e.g., different solvation, silanophilic interactions and hydrogen bonding.
Lipophilicity as RM values was determined through reversed-phase TLC (RP-TLC) on silica gel plates impregnated with 5% v/v liquid paraffin in light petroleum ether. Methanol/water mixture (70/30, v/v) was used as mobile phase. Closed chromatography tanks saturated with the mobile phase at 24 °C were used for the development of the plates while the spots were detected under UV light. For the determination of RM values, five individual measurements of Rf values were recorded, and the RM values were derived from the following Equation (1). (1) RM=log1/Rf−1

soybean lipoxygenase = target: T1, soybean lipoxygenase (Glycine max, UniProt P08170); assay: Inhibition of soybean lipoxygenase; format: biochemical; settings: 100 μM; cells of the mixed column without μM; read-out: LOX % Inhibition 100 μM
T1 construct: purchased Sigma Aldrich- Merck KGaA, Darmstadt, Germany
T1 sequence (P08170 1-839): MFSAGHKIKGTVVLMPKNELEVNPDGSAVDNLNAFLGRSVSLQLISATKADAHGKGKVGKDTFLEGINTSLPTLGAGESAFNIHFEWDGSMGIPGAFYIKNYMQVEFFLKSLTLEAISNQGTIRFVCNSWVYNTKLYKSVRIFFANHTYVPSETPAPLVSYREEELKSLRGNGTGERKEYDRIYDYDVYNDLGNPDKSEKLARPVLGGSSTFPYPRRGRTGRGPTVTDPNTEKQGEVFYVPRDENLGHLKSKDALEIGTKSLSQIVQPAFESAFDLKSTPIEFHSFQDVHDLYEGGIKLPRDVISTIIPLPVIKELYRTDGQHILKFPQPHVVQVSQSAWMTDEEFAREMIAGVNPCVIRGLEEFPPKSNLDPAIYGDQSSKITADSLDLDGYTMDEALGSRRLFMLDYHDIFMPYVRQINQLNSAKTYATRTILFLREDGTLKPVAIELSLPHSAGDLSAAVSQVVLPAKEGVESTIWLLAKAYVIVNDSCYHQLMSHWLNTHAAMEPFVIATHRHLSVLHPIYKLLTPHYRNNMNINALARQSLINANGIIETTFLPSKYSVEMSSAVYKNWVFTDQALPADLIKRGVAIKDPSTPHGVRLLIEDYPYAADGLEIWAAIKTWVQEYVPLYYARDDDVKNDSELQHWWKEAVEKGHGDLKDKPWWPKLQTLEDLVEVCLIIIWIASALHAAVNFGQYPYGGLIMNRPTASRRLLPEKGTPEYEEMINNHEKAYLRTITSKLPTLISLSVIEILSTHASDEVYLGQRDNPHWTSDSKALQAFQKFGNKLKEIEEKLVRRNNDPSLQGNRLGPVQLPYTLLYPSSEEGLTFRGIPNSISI
Source text: Lipoxygenase (LOX) is the key enzyme in the biosynthesis of inflammatory mediators; thus, it is considered a target for inflammatory diseases. Soybean LOX is a plant enzyme that has been used widely as a prototype for studying the functional and structural properties of the homologous family of lipoxygenases, presenting satisfactory homology with the human 5-LOX [42]. Linoleic acid is the most common substrate in plant LOX. […] Lipophilicity is considered one of the most important parameters with regard to LOX inhibitors according to the literature.
In vitro study was performed as reported previously by our group. In this experiment, 10 μL of the tested compound (from the stock solution) were incubated with 100 μL sodium linoleate (diluted in Tris buffer), 200 μL LOX solution (1:9 × 10^−4 w/v in saline) and 690 μL Tris buffer (pH 9.0) at room temperature. The absorbance was measured at 234 nm, where the change of absorbance was recorded due to the formation of 13-hydroperoxy-linoleic acid. […] In order to determine the IC50 values, different concentrations were used.

[3] = Inhibition of AAPH induced linoleic acid peroxidation
Protocol: For the lipid peroxidation study, 2,2′-Azobis(2-methylpropionamidine) dihydrochloride (AAPH) was used as the generator of peroxy radicals and sodium linoleate as the substrate that undergoes peroxidation. The conversion of linoleic acid to 13-hydroperoxy-linoleic acid was recorded at 234 nm. The change of absorbance reflects the possible antioxidant activity of the tested compounds, in comparison with the reference compound, Trolox.
In vitro study was performed as reported previously by our group. AAPH was used as a free radical generator of alkyl peroxyl radicals. For this experimental procedure, 10 μL of the tested compound (from the stock solution), 10 μL sodium linoleate (16 mM), 50 μL AAPH (40 mM) and 930 μL phosphate-buffered solution (pH 7.4) were added in a UV cuvette (1 mL), pre thermostated at 37 °C. The ability of the compounds to prevent the oxidation of linoleic acid from alkyl peroxyl radicals was evaluated by recording the change of absorbance at 234 nm, due to the conversion of linoleic acid to 13-hydroperoxy-linoleic acid. Trolox was used as the reference.

[4] = Reducing activity of the stable radical DPPH
Protocol: All the synthesized compounds were studied for their ability to interact with the stable free 2,2-diphenyl-1-picrylhydrazyl radical (DPPH) at a concentration of 100 μM after 20 min and 60 min (Table 4). This assay is based on the reduction of DPPH by transferring one electron from the antioxidant.
In vitro study was performed as reported previously by our group. In this experiment, 20 μL of the tested compound (from the stock solution), 980 μL EtOH and 1 mL ethanolic solution of DPPH (100 μM) were added in a testing tube in a final volume of 2 mL. The free radical scavenging ability was evaluated by recording the change of absorbance at 517 nm, produced by the reduction of DPPH, after 20 and 60 min at room temperature.

## COc1cc(C2Oc3cc([C@H]4Oc5cc(O)cc(O)c5C(=O)[C@@H]4O)ccc3OC2CO)ccc1O (some centres unmarked) [Silibinin, reference compound]
A549 cell line
  cytotoxicity at 100 µM: 96.4%
[1]
  viability at 24 h, 100 μM: 14.9%

## O=C(/C=C/c1cccs1)c1ccccc1 [Compound 1c, (E)-1-phenyl-3-(thiophen-2-yl)prop-2-en-1-one]
[2]
  RM: −0.52
Soybean lipoxygenase
  inhibition at 100 µM: 6%
other
  melting point: 58 to 60 °C

## Cc1c(C)c2c(c(C)c1O)CCC(C)(C(=O)O)O2 (centres unmarked) [Trolox, 6-Hydroxy-2,5,7,8-tetramethyl-chroman2-carboxylic acid, reference compound]
[3]
  AAPH % Inhibition 100 μM: - 92%

## CC(Cc1ccc(O)c(O)c1)C(C)Cc1ccc(O)c(O)c1 (centres unmarked) [NDGA, Nordihydroguaretic acid, reference compound]
[4]; 20 min
  RA % 100 μM 20 min: 87 - %
[4]; 60 min
  RA % 100 μM 60 min: 93 - %
